We go through eleven compounds from ChEMBL document CHEMBL3046245, “Effects of Ginkgo biloba constituents on fruit-infesting behavior of codling moth (Cydia pomonella) in apples” (2011).

Activity calls are given as the source filed them. The calls are words filed in the database; no cut-off is given here.

Assay [1] has as its system Cydia pomonella. Kind of assay: Inhibition of fruit-infesting behavior of Cydia pomonella (codling moth) neonates infested in apple fruit plugs assessed as feeding deterrence index at 1 mg/mL. In kind it is functional.
Assay [2] has as its system Cydia pomonella. Kind of assay: Inhibition of fruit-infesting behavior of Cydia pomonella (codling moth) neonates infested in apple fruit plugs assessed as feeding deterrence index at 0.1 mg/mL. In kind it is functional.
Assay [3] has as its system Cydia pomonella. Kind of assay: Inhibition of fruit-infesting behavior of Cydia pomonella (codling moth) neonates infested in apple fruit plugs assessed as feeding deterrence index at 10 mg/mL. In kind it is functional.
Assay [4] deals with Cydia pomonella. Kind of assay: Inhibition of fruit-infesting behavior of Cydia pomonella (codling moth) neonates infested in apple fruit plugs assessed as feeding deterrence index at 30 mg/mL. In kind it is functional, organism-based.
Assay [5] concerns Cydia pomonella. Kind of assay: Inhibition of fruit-infesting behavior of Cydia pomonella (codling moth) neonates infested in apple fruit plugs assessed as feeding deterrence index at 0.2 mg/mL. In kind it is functional.
The subject of assay [6] is Cydia pomonella. Kind of assay: Inhibition of fruit-infesting behavior of Cydia pomonella (codling moth) neonates infested in apple fruit plugs assessed as feeding deterrence index at 2 mg/mL. In kind it is functional.
In assay [7] the test system is Cydia pomonella. Kind of assay: Inhibition of fruit-infesting behavior of Cydia pomonella (codling moth) neonates infested in apple fruit plugs assessed as feeding deterrence index at 5 mg/mL. In kind it is functional.
In assay [8] the test system is Cydia pomonella. Kind of assay: Inhibition of fruit-infesting behavior of Cydia pomonella (codling moth) neonates infested in apple fruit plugs assessed as feeding deterrence index at 0.5 mg/mL. In kind it is functional.
Assay [9] concerns Cydia pomonella. Kind of assay: Inhibition of fruit-infesting behavior of Cydia pomonella (codling moth) neonates infested in apple fruit plugs assessed as feeding deterrence index at 0.001 mg/mL. It is filed as functional.
The subject of assay [10] is Cydia pomonella. Kind of assay: Inhibition of fruit-infesting behavior of Cydia pomonella (codling moth) neonates infested in apple fruit plugs assessed as feeding deterrence index at 0.01 mg/mL. It is filed as functional.
For assay [11], the system named is Cydia pomonella. Kind of assay: Inhibition of fruit-infesting behavior of Cydia pomonella (codling moth) neonates infested in apple fruit plugs assessed as feeding deterrence index at 3 mg/mL. In kind it is functional.
Assay [12] relates to Cydia pomonella. Kind of assay: Inhibition of fruit-infesting behavior of Cydia pomonella (codling moth) neonates infested in apple fruit plugs assessed as feeding deterrence index at 60 mg/mL. It is filed as functional, organism-based.

With `O=c1c(O)c(-c2ccc(O)c(O)c2)oc2cc(O)cc(O)c12`, the FDI entry in the assay on Cydia pomonella [1], with Cydia pomonella [2], in the assay with Cydia pomonella [3] and in the assay on Cydia pomonella [4] was “inactive” in each case.
For the compound `CCCCCCCCCCCCCCCc1cccc(O)c1C(=O)O` [ANACARDIC ACID], the FDI in the assay on Cydia pomonella [5] amounted to 25%; in the assay with Cydia pomonella [1], 91.7%; in the assay on Cydia pomonella [6] it was 73.7%; in the assay on Cydia pomonella [7], 81.8%; with Cydia pomonella [8], 26.7%.
Turning to `CC(C)(C)[C@]1(O)CC2OC(=O)CC23C(=O)OC2OC(=O)[C@H](O)C231` (some centres undefined) [BILOBALIDE], the FDI with Cydia pomonella [9] is on record as 0%; in the assay with Cydia pomonella [1], 50%; with Cydia pomonella [2], 56.5%; in the assay on Cydia pomonella [10] it was 23.5%; in the assay with Cydia pomonella [3], 75%.
With `CCCCCC/C=C\CCCCCCCc1cccc(O)c1C(=O)O` [GINGKOLIC ACID], the FDI in the assay with Cydia pomonella [1] is on record as 41.7%; in the assay on Cydia pomonella [7] it was 50%; in the assay with Cydia pomonella [3] it was 63.2%; with Cydia pomonella [8] it was 18.8%.
The like results for `CCCCCCCCCCCCCc1cccc(O)c1C(=O)O` [GINKGOLIC ACID 13:0] were, in that order, 26.1%, 0%, 42.1% and 23.5%.
For `CCCCCC/C=C\CCCCCCCCCc1cccc(O)c1C(=O)O` [GINKGOLIC ACID 17:1], in that order: 5.3%, 54.5%, 60% and 37.5%.
Consider `C[C@@H]1C(=O)O[C@H]2C[C@@]34[C@H]5C[C@@H](C(C)(C)C)[C@]36[C@@H](OC(=O)[C@@H]6O)O[C@@]4(C(=O)O5)[C@]21O` [GINKGOLIDE A], for which the FDI in the assay with Cydia pomonella [1] is 40.4%; in the assay on Cydia pomonella [2], 7.69%; with Cydia pomonella [3] it was 38.5%.
For `C[C@@H]1C(=O)O[C@H]2[C@H](O)[C@@]34O[C@@H]5OC(=O)[C@H](O)[C@@]56[C@H](C(C)(C)C)[C@H](O)C(OC3=O)[C@]64[C@@]12O` (some centres undefined) [GINKGOLIDE C], in that order: 20%, 11.8% and 10%.
The like results for `C[C@@H]1C(=O)O[C@H]2[C@H](O)[C@@]34[C@H]5C[C@@H](C(C)(C)C)[C@]36[C@@H](OC(=O)[C@@H]6O)O[C@@]4(C(=O)O5)[C@@]12O` [GINKOLIDE B] were, in that order, 26.1%, 12.5% and 76%.
As to `COc1cc(-c2oc3cc(O)cc(O)c3c(=O)c2O)ccc1O` [ISORHAMNETIN], in the assay with Cydia pomonella [1], the FDI result is “inactive”. For the same compound, the FDI in the assay with Cydia pomonella [2] amounted to 10.3%; with Cydia pomonella [10] it was 21.7%; in the assay with Cydia pomonella [11], 32.1%.
For `O=c1c(O)c(-c2ccc(O)cc2)oc2cc(O)cc(O)c12` [KAEMPFEROL], in the assay with Cydia pomonella [1], the FDI is reported as 25%. Further, the FDI entry in the assay with Cydia pomonella [2], in the assay with Cydia pomonella [3], in the assay with Cydia pomonella [4] and in the assay with Cydia pomonella [12] was “inactive” each time.
